{"source": "patent US4667032A", "about": "“Phenothiazone derivatives and analogs” (Merck Frosst Canada, Inc., priority 1985, dated 1987)", "key": {"[1]": {"test_system": "Mouse peritoneal macrophages", "assay": "Mouse Macrophage Assay (leukotriene C4 / PGE2 / 6-keto PGF1α formation, zymosan stimulated)", "format": "cell-based", "conditions": "at 0.05 mg/ml, read-out: Macrophage, % at stated concentration", "description": "Mouse peritoneal macrophages were treated sequentially with arachidonic acid (labelled with tritium); the compound being evaluated as an inhibitor, and a stimulator (zymosan). Metabolites derived from arachidonic acid PGE2 6-keto PH-F1α and leukotriene C4) were separated from the incubation medium by extraction and chromatography, and then quantitated by determining the amount of radioactivity (cpm) associated with each of them. […] (This protocol is identical to that described in the reference except that the radioactivity herein associated with the LTC4 was determined by counting an aliquot of the final aqueous solution directly rather than chromatographing it first).\nReference: Humes, J. L. et al., J. Biol. Chem. 257, 1591-4, (1982)."}, "[2]": {"test_system": "tracheal chain of sensitized guinea pigs", "assay": "Antigen Challenge 'in vitro' Assay (egg albumin contraction of sensitized guinea pig tracheal chain)", "conditions": "Table 4"}, "[3]": {"test_system": "tracheal chain of sensitized guinea pigs", "assay": "Antigen Challenge 'in vitro' Assay (egg albumin contraction of sensitized guinea pig tracheal chain)", "conditions": "10 μg (μg/ml)", "description": "Male guinea pigs weighing 300-350 g were sensitized by injecting (I.P.) 0.5 ml of a suspension containing 0.4 mg of egg albumin (Ovalbumin, Grade V, Sigma Chemical Co.) and 4.0 g aluminum hydroxide in 19.6 ml of saline. Two weeks were permitted for sensitization to occur.\nThree sensitized guinea pigs were stunned and exsanguinated. The tracheas were removed, freed of adhering tissue and divided longitudinally by cutting through the cartilaginous tissue directly opposite the muscle insertion. Each opened trachea was then transected between every second cartilage. Four of the cut sections were tied together, end to end, in a series with No. 7 silk thread ensuring that the tracheal muscles were all in the same vertical plane. Thus, each chain consisted of tissue from three different animals.\nThe chain so formed was then suspended under 1 g of tension (by silk ties at each end) in a 20 ml organ bath containing 10 ml of modified* Krebs-Henseleit buffer solution gassed with 95% O2 and 5% CO2 at 37° C. Mepyramine (0.55 μg/ml) and indomethacin (2.67 μg/ml) were added to the buffer to avoid the contribution of histamine receptors and cyclooxygenase products to the contraction. To record responses one end of the tracheal chain was attached to a Gould-Statham UC-2 force displacement transducer which was connected to a Beckman Type R-dynograph.The preparations were allowed to equilibrate for one hour during which time the tissues were automatically washed (10 ml volume displacement) every 6 minutes.\nAfter the equilibration period the tissues were primed with methacholine (3 μg/ml; 1.5×10^-5 M), washed and allowed to recover to baseline. The tissues were treated again with a second dose of methacholine, washed, allowed to return to baseline and washed for an additional hour.\nTwo chains were used as a control. These were incubated in a concentration of egg albumin sufficient to induce an average contraction of 50-80% of the methacholine response.\nEach compound to be tested was added to two other baths (at a final concentration in each bath of 10 μg/ml) 15 minutes prior to challenging the fresh chains with egg albumin.\nThe response of the challenged tissue was expressed as a percentage of the methacholine maximum. The % inhibition for each compound was then calculated. Compounds which at 10 μg/ml (final conc.) inhibited the egg albumin response by 50% or more were retested at a lower concentration."}, "[4]": {"test_system": "asthmatic rats", "assay": "Asthmatic Rat Assay (duration of dyspnoea after egg albumin aerosol)", "format": "in vivo", "conditions": "for ED50: Rattus norvegicus; for % inhibition (Ed50 column): p.o.", "source_text": "Rats were obtained from an inbred line of asthmatic rats. Both female and male rats from 200 to 300 g were used.\nEgg albumin (EA), grade V, crystallized and lyophilized, was obtained from Sigma Chemical Co., St. Louis. Bordetella pertussis vaccine, containing 30×10^9 killed bacteria per ml was obtained from the Institut Armand-Frappier, Laval des Rapides, Quebec. Aluminum hydroxide was obtained from the Regis Chemical Company, Chicago.\nThe challenge and subsequent respiratory recordings were carried out in a clear plastic box with internal dimensions 10×6×4 inches. The top of the box was removable; in use, it was held firmly in place by four clamps and an airtight seal was maintained by a soft rubber gasket. […] A Fleisch No. 0000 pneumotachograph was inserted into one end of the box and coupled to a Grass volumetric pressure transducer (PT5-A) which was then connected to a Beckman Type T Dynograph through appropriate couplers. While aerosolizing the antigen, the outlets were open and the pneumotachograph was isolated from the chamber. The outlets were closed and the pneumotachograph and the chamber were connected during the recording or the respiratory patterns. For challenge, 2 ml of a 3% solution of antigen in saline was placed into each nebulizer and the aerosol was generated with air from a small Potter diaphragm pump operating at 10 psi and a flow of 8 liters/minute.\nRats were sensitized by injecting (s.c.) 1 ml of a suspension containing 1 mg EA and 200 mg aluminum hydroxide in saline. Simultaneously, they received an injection (i.p.) of 0.5 ml of B. pertussis vaccine. They were used between days 14 and 18 postsensitization. In order to eliminate the serotonin component of the response, rats were pretreated intravenously 5 minutes prior to aerosol challenge with […] methylserzide. Rats were then exposed to an aerosol of 3% EA in saline for exactly 1 minute, then their respiratory profiles were recorded for a further 25-30 minutes. The duration of continuous dyspnoea was measured from the respiratory recordings.\nCompounds were generally administered either intraperitoneally 1 hour prior to challenge or orally 11/2 hours prior to challenge. They were either dissolved in dimethylsulfoxide or suspended in 0.1% methocel and 0.5% Tween 80. The volume injected has 2 ml/kg (intraperitoneally) or 10 ml/kg (orally). Prior to oral treatment rats were starved overnight. Their activity was determined in terms of their ability to decrease the duration of symptoms of dyspnoea in comparison with a group of vehicle-treated controls. Usually, a compound was evaluated at a series of doses and an ED50 was determined. This was defined as the dose (mg/kg) which would inhibit the duration of symptoms by 50%."}, "[5]": {"test_system": "rat paw, PAF-induced hyperalgesia", "assay": "PAF-Induced Hyperalgesia Assay", "format": "in vivo, Female Sprague-Dawley rats", "conditions": "for Vocalization Threshold: 3 hr after PAF, Mean ± S.E.M., n = 10", "description": "Female Sprague-Dawley rats, 35-40 g were fasted overnight. Platelet activating factor, PAF, (L-lecithin B-acetyl O-alkyl) 1 μg/0.1 ml was given by subplantar injection in the rat paw. The compounds to be evaluated were homogenized in Aqueous Vehicle (0.9% benzyl alcohol, 0.5% Tween 80 and 0.4% methylcellulose) and administered orally in a volume of 0.1 ml, 30 minutes prior to PAF.\nAnimals were tested 1, 2, 3 and 4 hours after PAF administration. The vocalization threshold, defined as the pressure (mmHg) needed to evoke a squeak response, was recorded for both the injected and contralateral paw. No animal was subjected to pressure greater than 60 mmHg. Hyperalgesia is defined as a decrease in vocalization threshold as compared to a normal paw. Percent inhibition of hyperalgesia was calculated as the proportion of animals with vocalization thresholds greater than 200% of controls.\n^a mmHg Mean ± S.E.M., n = 10 Reading taken 3 hr after injection o\nPAF, (3.5 hr. after administration of compound)."}, "[6]": {"test_system": "rat paw, Brewer's yeast hyperalgesia", "assay": "Brewer's Yeast Hyperalgesia Assay", "format": "in vivo, Female Sprague-Dawley rats", "conditions": "for Vocalization Threshold: mean, n = 10", "description": "The standard method* for yeast hyperalgesia was used. Female Sprague-Dawleyrats, […] were fasted overnight. A 5% solution (volume 0.1 ml) of Brewer's yeast was injected into the rat paw. The compound was homogenized in aqueous vehicle and given orally 2 hours after yeast. Vocalization thresholds were recorded 1 hours after drug (3 hours after yeast).\n^a mmHg: mean ± S.E.M. n = 10"}}, "data": [{"compound": "Cc1cc2nc3ccc(N(C)C)cc3sc-2cc1=N", "values": [{"measurement": "inhibition at 50 µg/mL", "setting": "[1]", "value": 10, "unit": "%"}, {"measurement": "In Vitro Antigen Challenge Test % Inhibition", "setting": "[2]; 10 mg (mg/ml)", "value": 24, "unit": "%"}]}, {"compound": "4-Chloro-2,7-dimethoxy-3H-phenothiazin-3-one [Example 3]", "values": [{"measurement": "In Vitro Antigen Challenge Test % Inhibition", "setting": "[3]", "value": 25, "unit": "%"}]}, {"compound": "4-Chloro-2,7-dimethyl-3H-phenothiazin-3-one [Example 5]", "values": [{"measurement": "In Vitro Antigen Challenge Test % Inhibition", "setting": "[3]", "value": 45, "unit": "%"}]}, {"compound": "4-Chloro-7-methyl-3H-phenothiazin-3-one [Example 7]", "values": [{"measurement": "In Vitro Antigen Challenge Test % Inhibition", "setting": "[2]; 10 mg (mg/ml)", "value": 37, "unit": "%"}]}, {"compound": "7-Fluoro-2-methoxy-3H-phenothiazin-3-one [Example 13]", "values": [{"measurement": "In Vitro Antigen Challenge Test % Inhibition", "setting": "[2]; 3 mg (mg/ml)", "value": 54, "unit": "%"}]}, {"compound": "7-Fluoro-3H-phenothiazin-3-oone [Example 11]", "values": [{"measurement": "In Vitro Antigen Challenge Test % Inhibition", "setting": "[2]; 3 mg (mg/ml)", "value": 23, "unit": "%"}]}, {"compound": "O=c1ccc2nc3ccccc3sc-2c1Cl", "note": "[B]", "values": [{"measurement": "ED50", "setting": "[4]; po", "value": 1.5, "unit": "mg/kg"}]}, {"compound": "O=c1ccc2nc3ccccc3sc-2c1", "note": "[C]", "values": [{"measurement": "ED50", "setting": "[4]; ip", "value": "~5", "unit": "mg/kg"}]}, {"compound": "COc1ccc2nc3cc(OC)c(=O)c(Br)c-3sc2c1", "note": "[D]", "values": [{"measurement": "ED50", "setting": "[4]; po", "value": 1, "unit": "mg/kg"}]}, {"compound": "O=C1C=CC2=Nc3ccccc3S(=O)(=O)C2=C1O", "note": "[E]", "values": [{"measurement": "% inhibition (Ed50 column)", "setting": "[4]; at 1.5 mg/kg", "value": 37, "unit": "%"}]}, {"compound": "O=c1ccc2nc3ccccc3sc-2c1Cl", "note": "[Example 2, 4-Chloro-3H-phenothiazin-3-one]", "values": [{"measurement": "% Inhibition", "setting": "[5]; Experiment 1, 0.01 mg/kg p.o.", "value": 40, "unit": "%"}, {"measurement": "Vocalization Threshold", "setting": "[5]; Experiment 1, 0.01 mg/kg p.o.", "value": "28.2 ± 5.2", "unit": "mmHg"}, {"measurement": "% Inhibition", "setting": "[5]; Experiment 1, 0.03 mg/kg p.o.", "value": 80, "unit": "%"}, {"measurement": "Vocalization Threshold", "setting": "[5]; Experiment 1, 0.03 mg/kg p.o.", "value": "40.2 ± 5.0", "unit": "mmHg"}, {"measurement": "% Inhibition", "setting": "[5]; Experiment 1, 0.1 mg/kg p.o.", "value": 80, "unit": "%"}, {"measurement": "Vocalization Threshold", "setting": "[5]; Experiment 1, 0.1 mg/kg p.o.", "value": "37.4 ± 3.9", "unit": "mmHg"}, {"measurement": "% Inhibition", "setting": "[5]; Experiment 1, 0.3 mg/kg p.o.", "value": 90, "unit": "%"}, {"measurement": "Vocalization Threshold", "setting": "[5]; Experiment 1, 0.3 mg/kg p.o.", "value": "45.4 ± 3.7", "unit": "mmHg"}, {"measurement": "% Inhibition", "setting": "[5]; Experiment 1, 3.0 mg/kg p.o.", "value": 100, "unit": "%"}, {"measurement": "Vocalization Threshold", "setting": "[5]; Experiment 1, 3.0 mg/kg p.o.", "value": "46.0 ± 3.0", "unit": "mmHg"}, {"measurement": "% Inhibition", "setting": "[5]; Experiment 2, 0.001 mg/kg p.o.", "value": 0, "unit": "%"}, {"measurement": "Vocalization Threshold", "setting": "[5]; Experiment 2, 0.001 mg/kg p.o.", "value": "10.0 ± 1.6", "unit": "mmHg"}, {"measurement": "% Inhibition", "setting": "[5]; Experiment 2, 0.003 mg/kg p.o.", "value": 30, "unit": "%"}, {"measurement": "Vocalization Threshold", "setting": "[5]; Experiment 2, 0.003 mg/kg p.o.", "value": "16.4 ± 2.8", "unit": "mmHg"}, {"measurement": "% Inhibition", "setting": "[5]; Experiment 2, 0.01 mg/kg p.o.", "value": 30, "unit": "%"}, {"measurement": "Vocalization Threshold", "setting": "[5]; Experiment 2, 0.01 mg/kg p.o.", "value": "18.0 ± 2.9", "unit": "mmHg"}, {"measurement": "% Inhibition", "setting": "[5]; Experiment 2, 0.1 mg/kg p.o.", "value": 60, "unit": "%"}, {"measurement": "Vocalization Threshold", "setting": "[5]; Experiment 2, 0.1 mg/kg p.o.", "value": "29.6 ± 4.4", "unit": "mmHg"}, {"measurement": "% Inhibition", "setting": "[6]; 0.3 mg/kg p.o.", "value": 30, "unit": "%"}, {"measurement": "Vocalization Threshold", "setting": "[6]; 0.3 mg/kg p.o.", "value": 17.6, "unit": "mmHg"}, {"measurement": "% Inhibition", "setting": "[6]; 1.0 mg/kg p.o.", "value": 30, "unit": "%"}, {"measurement": "Vocalization Threshold", "setting": "[6]; 1.0 mg/kg p.o.", "value": 19.4, "unit": "mmHg"}, {"measurement": "% Inhibition", "setting": "[6]; 3.0 mg/kg p.o.", "value": 60, "unit": "%"}, {"measurement": "Vocalization Threshold", "setting": "[6]; 3.0 mg/kg p.o.", "value": 30.0, "unit": "mmHg"}, {"measurement": "% Inhibition", "setting": "[6]; 10.0 mg/kg p.o.", "value": 70, "unit": "%"}, {"measurement": "Vocalization Threshold", "setting": "[6]; 10.0 mg/kg p.o.", "value": 28.6, "unit": "mmHg"}, {"measurement": "% Inhibition", "setting": "[6]; 30.0 mg/kg p.o.", "value": 80, "unit": "%"}, {"measurement": "Vocalization Threshold", "setting": "[6]; 30.0 mg/kg p.o.", "value": 32.6, "unit": "mmHg"}]}, {"compound": "O=c1cc2sc3ccccc3nc-2c2ccccc12", "note": "[F]", "values": [{"measurement": "% inhibition (Ed50 column)", "setting": "[4]; at 5 mg/kg", "value": 36, "unit": "%"}]}, {"compound": "O=c1ccc2nc3ccccc3sc-2c1Cl", "note": "[drawing 40]", "values": [{"measurement": "ED50", "setting": "[4]; ip", "value": 0.5, "unit": "mg/kg"}]}]}
